SMILES strings stand for the structures.

Data on two molecules can be found in the NIST ThermoML archive (doi:10.1021/je0301951).

The nature of this data set: wn = mass fraction of the nth substance listed. The note with it: Liquid, w2 = 1.

Take `O=C=O` [carbon dioxide] + O: the binary diffusion coefficient runs as follows: (293 K) 1.71e-09 m2/s; (298 K) 1.9e-09 m2/s; (303 K) 2.13e-09 m2/s; (308 K) 2.47e-09 m2/s; (313 K) 2.86e-09 m2/s.
With `[N-]=[N+]=O` [nitrous oxide] + O, the binary diffusion coefficient by setting is: (293 K) 1.54e-09 m2/s; (298 K) 1.8e-09 m2/s; (303 K) 1.98e-09 m2/s; (308 K) 2.29e-09 m2/s; (313 K) 2.58e-09 m2/s.
